MIC data for 54 compounds are collected here from ChEMBL document CHEMBL6134767, “Advances in antibacterial agents for Mycobacterium fortuitum” (2025).

In brackets after ≈: the same amount, converted by molar mass. Counter-ions that a name gives are not always drawn.

In one test the test system is Mycolicibacterium fortuitum. Kind of test: Antimycobacterial activity against Mycobacterium fortuitum ATCC 6841 assessed as reduction in microbial growth incubated for 72 hrs by resazurin dye based broth microdilution method. The format is functional.
What is called MIC is the least concentration at which growth counts as inhibited. In the case of `COc1ncc(-c2ccc(Cl)cc2)cc1[C@@H](c1ccccc1)[C@@](O)(CCN(C)C)c1cccc2ccccc12` [SUDAPYRIDINE], the MIC turned out to be 15 µM.
Consider `COc1cc([C@](O)(CCN(C)C)[C@@H](c2cc3cc(Br)ccc3nc2OC)c2ccnc(OC)c2OC)cc(OC)n1`, for which the MIC turned out to be 0.9 µM.
As to `O=c1ccc2ncc(=O)n3c2n1C[C@H]3CN1CCC(NCc2cc3c(cn2)OCCC3)CC1` [GEPOTIDACIN], the MIC came out at 4.46 µM.
Take `CC(=O)NC[C@H]1CN(c2ccc(-c3ccc(-c4nnnn4C)nc3)c(F)c2)C(=O)O1`: the minimal inhibitory concentration (MIC) turned out to be 0.61 µM.
Take `O=[N+]([O-])c1ccc(C2=NOC(c3ccc(N4CCC(Oc5ccc(OC(F)(F)F)cc5)CC4)cc3)C2)o1` (stereo not given): the MIC was found to be 12.1 µM.
Consider `COc1ncccc1Nc1cc2nc3ccccc3n(-c3ccc(OC(F)(F)F)cc3)c-2c/c1=N\C1CCC(OC)CC1` (stereo not given), for which the minimal inhibitory concentration (MIC) was determined as 1.17 µM.
`CC(=O)NC[C@H]1CN(c2ccc(N3CCN(c4ccc5nccn5n4)CC3)c(F)c2)C(=O)O1`: the MIC was found to be 2.2 µM.
For the compound `COc1c(N2CCN(c3ccc(N4C[C@H](CNC(C)=O)OC4=O)cc3F)CC2)cnc2nccn12`, the minimal inhibitory concentration (MIC) worked out at 2.07 µM.

Another test concerns Mycolicibacterium fortuitum. The test is described as follows: Antibacterial activity against Mycobacterium fortuitum ATCC 6841 assessed as reduction in bacterial growth incubated for 72 hrs by Mueller-Hinton broth micro-dilution based assay. Format: functional.
On to `C=C[C@H](O)C#CC#CC/C=C\CCCCCCC` [FALCARINOL], for which the minimal inhibitory concentration (MIC) came out at 16.4 µM (≈ 4 µg/mL).
On the same count and under the same terms, to `C[C@@H](N)CCCCCC/C=C\CCCCCCCCN` belongs 44 µM (≈ 12.4 µg/mL); to `C=C[C@@H](O)C#CC#C[C@@H](O)/C=C\CCCCCCC` [FALCARINDIOL], 30.4 µM (≈ 7.92 µg/mL).
For `CCCCCCCCCCCCCCCC(=O)O` [PALMITIC ACID], the MIC stood at 2 µM (≈ 0.513 µg/mL).
`CCCCC/C=C\C/C=C\CCCCCCCC(=O)O` [LINOLEIC ACID]: the minimum inhibitory concentration (MIC) was 14.3 µM (≈ 4 µg/mL).
On to `CCCCCCCC/C=C\CCCCCCCC(=O)O` [OLEIC ACID], for which the minimum inhibitory concentration (MIC) worked out at 56.6 µM (≈ 16 µg/mL).
The same measure, in the same setting: to `CCCCCCCCCCC/C=C\C=C\C(O)CC(=O)O` (stereo not given) belongs 0.11 µM (≈ 0.0326 µg/mL).

The test system of a further test is Mycolicibacterium fortuitum. The test is described as follows: Antimycobacterial activity against Mycobacterium fortuitum ATCC 6841. The format is functional.
Consider `OCCCCCCCCN=C=S`, for which the MIC came out at 21.4 µM (≈ 4 µg/mL).
On the same count and under the same terms, to `C/C=C/c1cc(OC)c2oc(-c3ccc(O)c(OC)c3)c(C)c2c1` belongs 0.15 µM (≈ 0.0487 µg/mL); to `CC1(C)CCC2=C(O1)c1ccccc1C(=O)C2=O` [LAPACHONE], 0.13 µM (≈ 0.0315 µg/mL).
Same read-out and setting: to `Cc1cc(O)c2c(c1)C(=O)C=CC2=O` [RAMENTACEONE] belongs 0.12 µM (≈ 0.0226 µg/mL); to `c1ccc2c(c1)[I+]c1ccccc1-2` [DIPHENYLENEIODONIUM CHLORIDE], 0.4 µM; to `N#Cc1cc([N+](=O)[O-])cnc1SC(=S)N1CCCCCC1`, 2.48 µM (≈ 0.8 µg/mL).
In turn, `COc1ncnc(SC(=S)N2CCCC2)c1[N+](=O)[O-]` registered an MIC of 5.19 µM (≈ 1.56 µg/mL).
Compound `CC(C)(O)[C@@H]1OC2=C(C(=O)c3ccccc3C2=O)[C@H]1O` had a minimum inhibitory concentration (MIC) of 45.6 µM (≈ 12.5 µg/mL).
Still for that read-out and setting: next, `C/C=C/c1cc(OC)c2c(c1)[C@@H](C)[C@H](c1ccc(O)c(OC)c1)O2` [LICARINE A]: 0.12 µM (≈ 0.0392 µg/mL).
The same measure, in the same setting: to `CN(C)c1ncnc(SC(=S)N2CCCC2)c1[N+](=O)[O-]` belongs 4.98 µM (≈ 1.56 µg/mL).

Another test concerns Mycolicibacterium fortuitum. Kind of test: Antimycobacterial activity against Mycobacterium fortuitum NCTC 10394 assessed as reduction in microbial growth incubated for 72 hrs by resazurin dye based broth microdilution method. Format: functional. (Resazurin is reduced to fluorescent resorufin, in cell work by metabolically active cells.)
As for `O=c1ccc2nccc3c4cccc(O)c4n1c23`, the MIC turned out to be 67.7 µM.
Same read-out and setting: next, `C[C@@H]([C@H](NC(=O)[C@H](CC1CCCCC1)NC(=O)N[C@@H](Cc1c[nH]c2ccccc12)C(=O)NCC(C)(C)C)C(=O)NC[C@H]1C[C@@H](O)[C@H](n2ccc(=O)[nH]c2=O)O1)N(C)C(=O)CN`: 1 µM; `C1=C2CCCC/C=C\C=C\CCN3CC[C@@H]4[C@H](CCCCCC/C=C\C=C/CCN(C2)C[C@H]14)C3` [HALICYCLAMINE A]: 54 µM; `C[n+]1c2ccccc2cc2[n-]c3ccccc3c21` [CRYPTOLEPINE HYDROCHLORIDE]: 59.5 µM.
Same read-out and setting: to `CC(C)CCn1cc(NC(=O)c2ccc3[nH]c(C(=O)Nc4cc(C(=O)Nc5ccc(C(=O)NCCN6CCN(C)CC6)n5C)n(CCC(C)C)c4)cc3c2)cc1C(=O)Nc1cc(C(=O)NCCN2CCN(C)CC2)n(C)c1` belongs 9.5 µM.
Still for that read-out and setting: to `O=c1ccc2nccc3c4ccccc4n1c23` [CANTHIN-6-ONE] belongs 72.7 µM; to `C[C@@H]([C@H](NC(=O)[C@H](Cc1ccc2ccccc2c1)NC(=O)N[C@@H](Cc1c[nH]c2ccccc12)C(=O)NCC(C)(C)C)C(=O)NC[C@H]1C[C@@H](O)[C@H](n2ccc(=O)[nH]c2=O)O1)N(C)C(=O)CN`, 1 µM.
`CC(C)CCn1cc(NC(=O)c2ccc3[nH]c(C(=O)Nc4cc(C(=O)Nc5ccc(C(=O)NCCN(C)C)n5C)n(CCC(C)C)c4)cc3c2)cc1C(=O)Nc1cc(C(=O)NCCN(C)C)n(C)c1`: the MIC stood at 5.2 µM.

In the next test the test system is Mycolicibacterium fortuitum. Kind of test: Antibacterial activity against Mycobacterium fortuitum. Format: functional.
As to `OCCCCCCCCN=C=S`, the lowest concentration to inhibit growth (MIC) was 20 µM (≈ 3.74 µg/mL).

The next test concerns Mycolicibacterium fortuitum. Kind of test: Antibacterial activity against Mycobacterium fortuitum ATCC 6841 assessed as bacterial growth inhibition incubated for 72 hrs by CLSI protocol based micro-dilution method. The format is functional. For orientation: Dilution methods test growth across graded concentrations, often in twofold steps.
Take `CC[C@H]1OC(=O)[C@H](C)[C@@H](O[C@H]2C[C@@](C)(OC)[C@@H](O)[C@H](C)O2)[C@H](C)[C@@H](O[C@@H]2O[C@H](C)C[C@H](N(C)C)[C@H]2O)[C@](C)(OC)C[C@@H](C)C(=O)[C@H](C)[C@@H](O)[C@]1(C)O` [CLARITHROMYCIN]: the MIC was 1.34 µM (≈ 1 µg/mL).
For the compound `CC(=O)NC[C@H]1CN(c2ccc(N3CCOCC3)c(F)c2)C(=O)O1` [LINEZOLID], the minimal inhibitory concentration (MIC) was determined as 23.7 µM (≈ 8 µg/mL).
The same measure, in the same setting: to `C[C@H]1c2cccc(O)c2C(=O)C2=C(O)[C@]3(O)C(=O)C(C(N)=O)=C(O)[C@@H](N(C)C)[C@@H]3[C@@H](O)[C@@H]21` [DOXYCYCLINE ANHYDROUS] belongs 0.56 µM (≈ 0.249 µg/mL).
Regarding `CC(C)/N=c1\cc2n(-c3ccc(Cl)cc3)c3ccccc3nc-2cc1Nc1ccc(Cl)cc1` [CLOFAZIMINE], the minimum inhibitory concentration (MIC) stood at 4.22 µM (≈ 2 µg/mL).
Turning to `Cc1cc(NS(=O)(=O)c2ccc(N)cc2)no1` [SULFAMETHOXAZOLE], the MIC came out at 126 µM (≈ 32 µg/mL).

In the next test the test system is Mycolicibacterium fortuitum. Kind of test: Antimycobacterial activity against Mycobacterium fortuitum ATCC 35931 assessed as reduction in bacterial growth. The format is functional.
For the compound `Fc1ccc(C(c2ccc(OCCN3CCCCCC3)cc2)c2cccs2)cc1` (stereo not given), the minimal inhibitory concentration (MIC) was 3.81 µM (≈ 1.56 µg/mL).
Same read-out and setting: next, `CCN(CC)CCOc1ccc(C(c2ccc(F)cc2)c2cccs2)cc1` (stereo not given): 16.3 µM (≈ 6.25 µg/mL); `COc1cccc(C(c2ccc(OCCN3CCCCC3)cc2)c2cccs2)c1` (stereo not given): 7.67 µM (≈ 3.13 µg/mL).
Still for that read-out and setting: to `CCN(CC)CCCCOc1cc2oc3cc(OCCCCN(CC)CC)c(OC)c(CC=C(C)C)c3c(=O)c2c(OCCCCN(CC)CC)c1CC=C(C)C` belongs 15.8 µM (≈ 12.5 µg/mL); to `CC(C)N(CCOc1ccc(C(c2ccc(Cl)cc2)c2cccs2)cc1)C(C)C` (stereo not given), 29.3 µM (≈ 12.5 µg/mL); to `Fc1ccc(C(c2ccc(OCCN3CCCCC3)cc2)c2cccs2)cc1` (stereo not given), 7.9 µM (≈ 3.12 µg/mL).
Regarding `CC(C)N(CCOc1ccc(C(c2ccc(F)cc2)c2cccs2)cc1)C(C)C` (stereo not given), the minimum inhibitory concentration (MIC) amounted to 15.2 µM (≈ 6.26 µg/mL).
For the compound `CC(=O)c1c(O)c(C)c(O)c2c1OC1=CC(=O)C(C(C)=O)C(=O)C12C` (stereo not given), the minimum inhibitory concentration (MIC) worked out at 0.15 µM (≈ 0.0516 µg/mL).
In the case of `Fc1ccc(C(c2ccc(OCCN3CCCC3)cc2)c2cccs2)cc1` (stereo not given), the MIC was found to be 8.2 µM (≈ 3.13 µg/mL).
On the same count and under the same terms, to `Clc1ccc(C(c2ccc(OCCN3CCCCC3)cc2)c2cccs2)cc1` (stereo not given) belongs 3.79 µM (≈ 1.56 µg/mL); to `COc1ccc(C(c2ccc(OCCN3CCCCC3)cc2)c2cccs2)cc1` (stereo not given), 7.67 µM (≈ 3.13 µg/mL); to `COc1cc(OC)c2c(ccc3cc(O)c(O)cc32)c1`, 92.5 µM (≈ 25 µg/mL).
Still for that read-out and setting: next, `CC(=O)OCC1=CCc2c(cc(O)c3c(=O)cc(C)oc23)OC1`: 25.3 µM (≈ 8 µg/mL); `CC(=O)c1ccc2c3c4c(c(O)cc(C)c4c(O)c2c1O)C(=O)c1c(O)cc(C)cc1-3`: 0.12 µM (≈ 0.0497 µg/mL); `C[n+]1ccc(-c2c3nc(c(-c4cc[n+](C)cc4)c4ccc([nH]4)c(-c4cc[n+](C)cc4)c4ccc([nH]4)c(-c4cc[n+](C)cc4)c4nc2C=C4)C=C3)cc1` [TMPYP4]: 50 µM.
On the same count and under the same terms, to `O=S(=O)(O)c1ccc(-c2c3nc(c(-c4ccc(S(=O)(=O)O)cc4)c4ccc([nH]4)c(-c4ccc(S(=O)(=O)O)cc4)c4nc(c(-c5ccc(S(=O)(=O)O)cc5)c5ccc2[nH]5)C=C4)C=C3)cc1` belongs 100 µM (≈ 93.5 µg/mL).
